Where two headings read alike, the source gives them in different places.
Assays:
P. aeruginosa = experiment: microbe, parasite or virus in culture; assay type: cell-based; conditions: Pseudomonas aeruginosa, read-out: MIC
Source text: (§1) The antibacterial activity of cefepime-taniborbactam was compared to that of ceftazidime-avibactam, ceftolozane-tazobactam, and cefepime-tazobactam against a diverse panel of Enterobacterales and P. aeruginosa clinical isolates with defined β-lactamase subtypes (see Table S1 in the supplemental material). IMP-producing strains were excluded, as none of the BLI-protected cephalosporins inhibited IMP sufficiently to provide a clinically relevant rescue of the partner β-lactam, a characteristic also shared by approved BLI-protected carbapenems (meropenem-vaborbactam and imipenem-relebactam). […] The antibacterial activity of the cephalosporins alone was included to ascertain the level of potentiation by the partnered BLI. BLIs were tested at a fixed concentration of 4 μg/ml in all combinations except cefepime-tazobactam, where tazobactam was fixed at a concentration of 8 μg/ml ([38]). The collection comprised 143 clinical isolates collected from 2005 and 2018.
(§2) The in vitro antibacterial activity of the β-lactams alone or in combination with the BLIs was determined in cation-adjusted Mueller-Hinton broth (CAMHB) microdilution assays according to CLSI recommendations ([51]). […]. The inocula for the broth microdilution assays were prepared by the broth culture method ([51]). […]

E. coli = experiment: microbe, parasite or virus in culture; assay type: cell-based
Source text: as §1, §2

CC(C)(O/N=C(\C(=O)N[C@@H]1C(=O)N2C(C(=O)[O-])=C(C[n+]3ccccc3)CS[C@H]12)c1csc(N)n1)C(=O)O [CAZ]
MIC (P. aeruginosa; strain 13.1717, PDC-74): ≥ 256 µg/mL
MIC (P. aeruginosa; strain 13.1737, PDC-80): 128 µg/mL
MIC (P. aeruginosa; strain 13.1755, PDC-86): ≥ 256 µg/mL
MIC (P. aeruginosa; strain 13.1760, PDC-77): ≥ 256 µg/mL
MIC (P. aeruginosa; strain 13.1775, PDC-87): ≥ 256 µg/mL
MIC (P. aeruginosa; strain 247.3D, VIM-2): ≥ 256 µg/mL
MIC (P. aeruginosa; strain 1129, PDC): 4 µg/mL
MIC (P. aeruginosa; strain 3615, PDC/TEM-1): 32 µg/mL
MIC (P. aeruginosa; strain 5671, VIM-1): 128 µg/mL
MIC (P. aeruginosa; strain 8273, PDC/TEM-1): 16 µg/mL
MIC (P. aeruginosa; strain 164951, W.T.): 2 µg/mL
MIC (P. aeruginosa; strain 377860, W.T.): 4 µg/mL
MIC (P. aeruginosa; strain 384743, PDC/TEM-1): 16 µg/mL
MIC (P. aeruginosa; strain 1071703, GES-6): 64 µg/mL
MIC (P. aeruginosa; strain 1113755, GES-5): ≥ 256 µg/mL
MIC (P. aeruginosa; strain 1138223, GES-19): ≥ 256 µg/mL
MIC (P. aeruginosa; strain 1138337, GES-19): ≥ 256 µg/mL
MIC (P. aeruginosa; strain 1258509, GES-6): 64 µg/mL
MIC (P. aeruginosa; strain 1275655, GES-20): ≥ 256 µg/mL
MIC (P. aeruginosa; strain 1300089, GES-19): ≥ 256 µg/mL
MIC (P. aeruginosa; strain PA2, W.T.): 4 µg/mL
MIC (P. aeruginosa; strain PAA1-9G1, GES-5): ≥ 256 µg/mL
MIC (P. aeruginosa; strain PAA1-9G2, GES-5): ≥ 256 µg/mL
MIC (P. aeruginosa; strain PS-12, VIM-2): 64 µg/mL
MIC (P. aeruginosa; strain PS-32, VIM-2): 16 µg/mL
MIC (P. aeruginosa; strain Paeβ-04, 100-fold ↑ PDC-2/30% OprD/5.6x ↑ABM): 32 µg/mL
MIC (P. aeruginosa; strain Paeβ-10, 67-fold ↑ PDC-2/0.1% OprD/5.7x↑ABM): 32 µg/mL
MIC (P. aeruginosa; strain Paeβ-15, 310-fold ↑ PDC-2/10% OprD/4.4x↑XYM): 64 µg/mL
MIC (P. aeruginosa; strain Paeβ-17, 62-fold ↑PDC-3/30% OprD/10.2x and 9.9x ↑XYM and CDJ): 64 µg/mL
MIC (P. aeruginosa; strain Paeβ-18, 600-fold ↑ PDC-3/<0.01% OprD/3.9x and 5.6x ↑ABM and XYM): ≥ 256 µg/mL
MIC (P. aeruginosa; strain Paeβ-21, 200-fold ↑ PDC-4/10% OprD/13.5x ↑XYM): 64 µg/mL
MIC (P. aeruginosa; strain Ps296, VIM-2): 64 µg/mL
MIC (E. coli): 64 µg/mL
MIC (E. coli; Escherichia coli, strain 469, AmpC/SHV-12/TEM-1, read-out: MIC): 64 µg/mL
MIC (E. coli; Escherichia coli, strain 1924, TEM-12, read-out: MIC): 32 µg/mL
MIC (E. coli; Escherichia coli, strain 664507, OXA-48, read-out: MIC): 64 µg/mL
MIC (E. coli; Escherichia coli, strain 664516, OXA-48, read-out: MIC): 64 µg/mL
MIC (E. coli; Escherichia coli, strain 664520, OXA-48, read-out: MIC): 64 µg/mL
MIC (E. coli; Escherichia coli, strain 664522, OXA-48, read-out: MIC): 64 µg/mL
MIC (E. coli; Escherichia coli, strain 664523, OXA-48, read-out: MIC): 64 µg/mL
MIC (E. coli; Escherichia coli, strain 873435, CTX-M-15, read-out: MIC): 128 µg/mL
MIC (E. coli; Escherichia coli, strain 875627, CTX-M-27, read-out: MIC): 8 µg/mL
MIC (E. coli; Escherichia coli, strain 878358, TEM-1/CTX-M, read-out: MIC): 32 µg/mL
MIC (E. coli; Escherichia coli, strain 890500, TEM-1/CTX-M-14, read-out: MIC): 4 µg/mL
MIC (E. coli; Escherichia coli, strain 1275635, VIM-23, read-out: MIC): 128 µg/mL
MIC (E. coli; Escherichia coli, strain 1459453, NDM-7, read-out: MIC): ≥ 256 µg/mL
MIC (E. coli; Escherichia coli, strain CDC-0069, NDM, read-out: MIC): ≥ 256 µg/mL
MIC (E. coli; Escherichia coli, strain CDC-0149, NDM, read-out: MIC): ≥ 256 µg/mL
MIC (E. coli; Escherichia coli, strain EC1552 2A, AmpC/CMY-2/TEM-1, CTX-M-15, read-out: MIC): 64 µg/mL
MIC (E. coli; Escherichia coli, strain ESBL 5, CTX-M-15/TEM-1, read-out: MIC): 128 µg/mL
MIC (E. coli; Escherichia coli, strain SI-LP377, CTX-M-2, read-out: MIC): 8 µg/mL
MIC (E. coli; Escherichia coli, strain SI-M004, SHV-2/GES-12, read-out: MIC): ≥ 256 µg/mL
MIC (E. coli; Escherichia coli, strain SI-PO26, AmpC/CMY-2/TEM-1, read-out: MIC): 64 µg/mL
MIC (E. coli; Escherichia coli, strain SI-V502, TEM-29/CTX-M-15, read-out: MIC): 32 µg/mL
MIC (E. coli; Escherichia coli, strain VER, OXA-48, read-out: MIC): 0.5 µg/mL

— article PMC7038240 (Antimicrobial Agents and Chemotherapy, 2020)
